Data: US20240391931A1 (Bristol-Myers Squibb Company, priority 2021, published 2024)
Counter-ions that a name gives are not always drawn.

Tests used:
EGFR WT = target: T1, EGFR WT (Homo sapiens, UniProt P00533); experiment: Enzymatic assay EGFR WT (method c); type: biochemical; details: [EGFR WT]=2 nM, [ATP]=1 mM, [Peptide 22]=1 μM
T1 construct: purchased Thermo Fisher, Carlsbad, CA ERBB1 PR7295B
Description: (§1) A 2× stock solution of HER2 WT (ERBB2 0108-0000-1; ProQinase, Freiburg, Germany) corresponding to method a, was prepared as described below. Alternatively, a 2× stock solution of HER2YVMA (custom purification; Viva biotech, Shanghai, China) corresponding to method b, was prepared as described below. For method c, a 2× stock of EGFR (ERBB1 PR7295B, Thermo Fisher, Carlsbad, CA) was prepared as described below. All 2× solutions were prepared in buffer containing 50 mM HEPES, pH 7.5, 10 mM MnCl2, MgCl2, 0.005% Tween 20, 1 mM TCEP. 25 ul of 2× enzyme solution was added to a Seahorse low volume 384-well polypropylene assay plate (201288-100, Seahorse Bioscience, Chicopee, MA) containing 1 μl of compound serially diluted in 50% DMSO. To initiate the reaction, 25 μl of solution containing 2× final concentration of ATP and ProfilerPro Peptide 22 (760366, Perkin Elmer Hopkinton, MA) was added to each well. The reactions were separated on an LC3000 (Caliper Life Sciences) or a LabChip EZReader (Perkin Elmer) in kinetic mode.
(§2) At the conclusion of each assay, the data were exported from the instrument as a .rda file (LC3000) and processed in proprietary software, EZReviewer, which determines the percent of substrate converted to product within a given cycle as (P/P+S)*100 by measuring the amplitude of substrate and product peaks. Cycle time varied with amount of compounds tested between 8 and 12 cycles. Initial velocity (0-3600 s) from each reaction was determined from the slope of a plot of percent conversion at each cycle versus time (seconds). Percent inhibition was determined by dividing the slope of each reaction by the uninhibited control using 100*(1-(x/uninhibited control)). IC50 estimates were obtained by plotting the concentration of inhibitor versus percent inhibition in GraphPad Prism (GraphPad Software, San Diego, CA) using log[inhibitor] versus Response (Variable Slope Model); Y=Min+((Max-Min)/(1+((IC50/x)^Hillslope)))
(§3) • a) [HER2 WT]=12.5 nM, [ATP]=25 μM, [Peptide 22]=1 μM (ATP KMapp˜25 μM) • b) [HER2YVMA]=5 nM, [ATP]=25 μM, [Peptide 22]=1 μM (ATP KMapp˜15 μM) • c) [EGFR WT]=2 nM, [ATP]=1 mM, [Peptide 22]=1 μM (ATP KMapp˜25 μM)

HER2 WT = target: T2, HER2 WT (Homo sapiens, UniProt P04626); experiment: Enzymatic assay HER2 WT (method a); type: biochemical; details: [HER2 WT]=12.5 nM, [ATP]=25 μM, [Peptide 22]=1 μM
T2 construct: purchased ProQinase, Freiburg, Germany ERBB2 0108-0000-1
Description: as §1, §2, §3

T2 sequence (P04626 23-1255): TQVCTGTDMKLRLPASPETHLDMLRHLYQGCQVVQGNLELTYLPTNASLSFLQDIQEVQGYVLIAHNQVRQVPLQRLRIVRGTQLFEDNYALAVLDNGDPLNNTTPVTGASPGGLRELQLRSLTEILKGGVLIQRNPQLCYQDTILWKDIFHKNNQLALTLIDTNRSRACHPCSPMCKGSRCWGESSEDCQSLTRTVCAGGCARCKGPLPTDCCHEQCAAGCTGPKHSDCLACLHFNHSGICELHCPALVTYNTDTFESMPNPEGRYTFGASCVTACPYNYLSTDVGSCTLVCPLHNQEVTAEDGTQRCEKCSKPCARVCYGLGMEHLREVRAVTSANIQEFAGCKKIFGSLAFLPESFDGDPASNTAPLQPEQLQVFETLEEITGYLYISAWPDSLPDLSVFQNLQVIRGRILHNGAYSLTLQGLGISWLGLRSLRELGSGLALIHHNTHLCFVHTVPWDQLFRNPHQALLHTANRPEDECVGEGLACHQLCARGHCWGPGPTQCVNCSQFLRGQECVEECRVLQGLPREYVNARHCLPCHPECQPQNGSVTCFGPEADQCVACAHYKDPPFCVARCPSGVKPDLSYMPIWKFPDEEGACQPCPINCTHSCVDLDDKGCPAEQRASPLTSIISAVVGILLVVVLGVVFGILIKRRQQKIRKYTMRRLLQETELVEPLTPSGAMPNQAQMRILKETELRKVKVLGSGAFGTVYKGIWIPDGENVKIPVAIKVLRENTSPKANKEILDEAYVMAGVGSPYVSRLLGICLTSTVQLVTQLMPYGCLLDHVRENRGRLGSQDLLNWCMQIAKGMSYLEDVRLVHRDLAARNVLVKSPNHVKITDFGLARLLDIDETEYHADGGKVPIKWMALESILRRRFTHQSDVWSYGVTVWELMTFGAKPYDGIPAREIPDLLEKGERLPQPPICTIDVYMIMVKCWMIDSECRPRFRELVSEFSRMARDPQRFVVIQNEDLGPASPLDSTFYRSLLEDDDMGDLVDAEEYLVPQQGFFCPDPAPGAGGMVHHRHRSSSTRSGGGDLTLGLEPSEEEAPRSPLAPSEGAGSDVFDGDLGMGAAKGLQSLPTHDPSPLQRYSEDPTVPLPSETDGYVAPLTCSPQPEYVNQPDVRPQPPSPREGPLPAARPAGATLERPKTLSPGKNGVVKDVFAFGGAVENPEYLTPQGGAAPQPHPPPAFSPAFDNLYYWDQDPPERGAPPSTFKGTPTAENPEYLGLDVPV
T1 sequence (P00533 25-1210): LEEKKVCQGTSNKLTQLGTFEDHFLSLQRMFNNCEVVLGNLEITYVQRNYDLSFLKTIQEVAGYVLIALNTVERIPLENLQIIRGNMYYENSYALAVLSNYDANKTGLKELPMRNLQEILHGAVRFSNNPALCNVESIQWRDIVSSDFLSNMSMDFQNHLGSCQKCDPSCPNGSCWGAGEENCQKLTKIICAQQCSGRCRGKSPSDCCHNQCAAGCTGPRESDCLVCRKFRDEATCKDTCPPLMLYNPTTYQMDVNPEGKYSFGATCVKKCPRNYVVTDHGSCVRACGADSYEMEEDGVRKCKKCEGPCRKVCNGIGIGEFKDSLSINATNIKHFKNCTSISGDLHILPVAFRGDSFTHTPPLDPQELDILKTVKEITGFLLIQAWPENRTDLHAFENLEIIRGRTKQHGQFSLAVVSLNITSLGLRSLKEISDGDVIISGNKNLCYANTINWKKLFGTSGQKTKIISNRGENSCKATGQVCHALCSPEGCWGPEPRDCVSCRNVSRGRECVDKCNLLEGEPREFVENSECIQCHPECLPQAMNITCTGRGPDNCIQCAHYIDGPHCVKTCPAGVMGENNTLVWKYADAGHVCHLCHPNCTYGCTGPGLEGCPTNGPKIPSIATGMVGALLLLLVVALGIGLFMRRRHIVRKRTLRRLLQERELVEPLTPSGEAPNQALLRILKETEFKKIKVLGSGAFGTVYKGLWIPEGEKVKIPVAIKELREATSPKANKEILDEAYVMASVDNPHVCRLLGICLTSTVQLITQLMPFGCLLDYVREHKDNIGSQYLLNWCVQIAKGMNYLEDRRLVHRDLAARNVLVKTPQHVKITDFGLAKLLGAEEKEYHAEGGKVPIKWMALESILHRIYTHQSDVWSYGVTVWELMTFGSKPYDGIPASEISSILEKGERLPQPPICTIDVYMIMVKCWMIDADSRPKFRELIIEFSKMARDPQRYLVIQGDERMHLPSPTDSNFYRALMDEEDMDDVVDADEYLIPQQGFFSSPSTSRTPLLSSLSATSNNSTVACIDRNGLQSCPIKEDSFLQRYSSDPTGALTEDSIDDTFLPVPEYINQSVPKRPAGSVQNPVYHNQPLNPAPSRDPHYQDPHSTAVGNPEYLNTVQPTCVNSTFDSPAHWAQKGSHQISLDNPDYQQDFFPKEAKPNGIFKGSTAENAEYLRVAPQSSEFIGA

Structure (SMILES) | IC50 (EGFR WT) [µM] | IC50 (HER2 WT) [µM]
Cc1ccc(Oc2ccc(Nc3ncnc4sc5c(c34)CCN(C(=O)/C=C/CN3CC4CCC(C4)C3)C5)cc2C)cn1 [Compound 16, (E)-4-(3-azabicyclo[3.2.1]octan-3-yl)-1-(4-((3-methyl-4-((6-methylpyridin-3-yl)oxy)phenyl)amino)-5,8-dihydropyrido[4′,3′:4,5]thieno[2,3-d]pyrimidin-7(6H)-yl)but-2-en-1-one benzenesulfonate salt] | – | < 0.1
COc1cc(Nc2ncnc3sc4c(c23)CCN(C(=O)/C=C/CN(C)C)C4)ccc1Oc1ccccc1 [Compound 7, (E)-4-(dimethylamino)-1-(4-((3-methoxy-4-phenoxyphenyl)amino)-5,8-dihydropyrido[4′,3′:4,5]thieno[2,3-d]pyrimidin-7(6H)-yl)but-2-en-1-one] | > 10 | < 0.1
CCN(CC)C/C=C/C(=O)N1CCc2c(sc3ncnc(Nc4ccc(Oc5ccc(OC)nc5)c(C)c4)c23)C1 [Compound 137] | > 10 | < 0.1
Cc1ccc(Oc2ccc(Nc3ncnc4sc5c(c34)CCN(C(=O)/C=C/CN3CCO[C@H](CO)C3)C5)cc2C)cn1 [Compound 136] | > 10 | < 0.1
C=CC(=O)N1CCc2c(sc3ncnc(Nc4ccc(Oc5cccnc5)c(C)c4)c23)C1 [Compound 11, 1-(4-((3-methyl-4-(pyridin-3-yloxy)phenyl)amino)-5,8-dihydropyrido[4′,3′:4,5]thieno[2,3-d]pyrimidin-7(6H)-yl)prop-2-en-1-one] | 1 to 10 | < 0.1
Cc1cc(Nc2ncnc3sc4c(c23)CCN(C(=O)/C=C/CN(C)C)C4)ccc1Oc1ccc2nccn2c1 [Compound 109, (E)-4-(dimethylamino)-1-(4-((4-(imidazo[1,2-a]pyridin-6-yloxy)-3-methylphenyl)amino)-5,6-dihydropyrido[4′,3′:4,5]thieno[2,3-d]pyrimidin-7(8H)-yl)but-2-en-1-one] | > 10 | 0.1 to 1
Cc1ccc(Oc2ccc(Nc3ncnc4sc5c(c34)CCN(C(=O)/C=C/CN3CCC[C@H](n4cccn4)C3)C5)cc2C)cn1 [Compound 112] | > 10 | < 0.1
C#CCOCCN(C)C/C=C/C(=O)N1CCc2c(sc3ncnc(Nc4ccc(Oc5ccc(C)nc5)c(C)c4)c23)C1 [Compound 139] | > 10 | < 0.1
C=CC(=O)N1Cc2sc3ncnc(Nc4ccc(Oc5ccc(C)nc5)c(C)c4)c3c2C(C)C1 (single isomer, unassigned) [Compound 146] | 1 to 10 | < 0.1
Cc1cc(Nc2ncnc3sc4c(c23)CCN(C(=O)/C=C/CN(C)C)C4)ccc1Oc1ccn2ncnc2c1 [Compound 138, (E)-1-(4-((4-([1,2,4]triazolo[1,5-a]pyridin-7-yloxy)-3-methylphenyl)amino)-5,8-dihydropyrido[4′,3′:4,5]thieno[2,3-d]pyrimidin-7(6H)-yl)-4-(dimethylamino)but-2-en-1-one] | > 10 | < 0.1
C=CC(=O)N1Cc2sc3ncnc(Nc4ccc(Oc5ccc(C)nc5)c(C)c4)c3c2C(C)C1 (single isomer, unassigned) [Compound 145] | > 10 | < 0.1
Cc1ccc(Oc2ccc(Nc3ncnc4sc5c(c34)CCN(C(=O)/C=C/CN3CC[C@H](CO)C3)C5)cc2C)cn1 [Compound 133] | > 10 | < 0.1
O=C(/C=C/CN1CCOCC1)N1CCc2c(sc3ncnc(Nc4ccc(Oc5ccc6ncnn6c5)c(Cl)c4)c23)C1 [Compound 18] | > 10 | < 0.1
Cc1ccc(Oc2ccc(Nc3ncnc4sc5c(c34)CCN(C(=O)/C=C/CN3CC4CC(C3)O4)C5)cc2C)cn1 [Compound 15] | > 10 | < 0.1
COc1ccc(Oc2ccc(Nc3ncnc4sc5c(c34)CCN(C(=O)/C=C/CN3CC[C@H](CO)C3)C5)cc2C)cn1 [Compound 140] | > 10 | < 0.1
Cc1ccc(Oc2ccc(Nc3ncnc4sc5c(c34)CCN(C(=O)/C=C/CN3CCC(CO)(CO)CC3)C5)cc2C)cn1 [Compound 135] | > 10 | < 0.1
Cc1ccc(Oc2ccc(Nc3ncnc4sc5c(c34)CCN(C(=O)/C=C/CN3CC[C@@H](CO)C3)C5)cc2C)cn1 [Compound 132] | 1 to 10 | < 0.1
Cc1ccc(Oc2ccc(Nc3ncnc4sc5c(c34)CCN(C(=O)/C=C/CN3CC4CCC(C3)O4)C5)cc2C)cn1 [Compound 13] | > 10 | < 0.1
C=CC(=O)N1CCc2c(sc3ncnc(Nc4ccc(Oc5cccnc5)c(Cl)c4)c23)C1 [Compound 6, 1-(4-((3-chloro-4-(pyridin-3-yloxy)phenyl)amino)-5,8-dihydropyrido[4′,3′:4,5]thieno[2,3-d]pyrimidin-7(6H)-yl)prop-2-en-1-one] | > 10 | < 0.1
Cc1cc(Nc2ncnc3sc4c(c23)CCN(C(=O)/C=C/CN2CCOCC2)C4)ccc1Oc1ccc2ncnn2c1 [Compound 12] | > 10 | < 0.1

Next, values leading:

IC50 (EGFR WT) [µM] | IC50 (HER2 WT) [µM] | Structure (SMILES)
> 10 | 1 to 10 | Cc1ccc(Oc2ccc(Nc3ncnc4sc5c(c34)C(C)N(C(=O)C=CCN(C)C)C5)cc2C)cn1 (single isomer, unassigned) [Compound 148]
> 10 | < 0.1 | Cc1ccc(Oc2ccc(Nc3ncnc4sc5c(c34)CCN(C(=O)/C=C/CN3CCC[C@@H](CO)C3)C5)cc2C)cn1 [Compound 154]
> 10 | 0.1 to 1 | COc1ccc(Oc2ccc(Nc3ncnc4sc5c(c34)CCN(C(=O)/C=C/CN(C)C)CC5)cc2C)cn1 [Compound 173, (E)-4-(Dimethylamino)-1-(4-((4-((6-methoxypyridin-3-yl)oxy)-3-methylphenyl)amino)-8,9-dihydro-5H-pyrimido[5′,4′:4,5]thieno[2,3-d]azepin-7(6H)-yl)but-2-en-1-one]
1 to 10 | < 0.1 | COc1ccc(Oc2ccc(Nc3ncnc4sc5c(c34)CCN(C(=O)/C=C/CN3CC[C@@H](CO)C3)C5)cc2C)cn1 [Compound 143]
> 10 | 0.1 to 1 | Cc1ccc(Oc2ccc(Nc3ncnc4sc5c(c34)C[C@@H](C)N(C(=O)/C=C/CN(C)C)[C@@H]5C)cc2C)cn1 (racemic) [Compound 165, (E)-1-(6,8-trans-dimethyl-4-((3-methyl-4-((6-methylpyridin-3-yl)oxy)phenyl)amino)-5,8-dihydropyrido[4′,3′:4,5]thieno[2,3-d]pyrimidin-7(6H)-yl)-4-(dimethylamino)but-2-en-1-one]
> 10 | < 0.1 | Cc1cc(Nc2ncnc3sc4c(c23)CCN(C(=O)/C=C/CN(C)C)CC4)ccc1Oc1ccn2ccnc2c1 [Compound 172, (E)-4-(Dimethylamino)-1-(4-((4-(imidazo[1,2-a]pyridin-7-yloxy)-3-methylphenyl)amino)-8,9-dihydro-5H-pyrimido[5′,4′:4,5]thieno[2,3-d]azepin-7(6H)-yl)but-2-en-1-one]
> 10 | < 0.1 | Cc1ccc(Oc2ccc(Nc3ncnc4sc5c(c34)CCN(C(=O)/C=C/CN3CC(F)(CO)C3)C5)cc2C)cn1 [Compound 151]
> 10 | < 0.1 | Cc1ccc(Oc2ccc(Nc3ncnc4sc5c(c34)CCN(C(=O)/C=C/CN3CCC[C@H](CO)C3)C5)cc2C)cn1 [Compound 155]
> 10 | 0.1 to 1 | Cc1ccc(Oc2ccc(Nc3ncnc4sc5c(c34)CN(C(=O)/C=C/CN(C)C)C5C)cc2C)cn1 (stereo not shown) [Compound 153, (E)-4-(dimethylamino)-1-(7-methyl-4-((3-methyl-4-((6-methylpyridin-3-yl)oxy)phenyl)amino)-5,7-dihydro-6H-pyrrolo[3′,4′:4,5]thieno[2,3-d]pyrimidin-6-yl)but-2-en-1-one]
> 10 | < 0.1 | Cc1ccc(Oc2ccc(Nc3ncnc4sc5c(c34)CC(C)N(C(=O)C=CCN(C)C)C5C)cc2C)cn1 (single isomer, unassigned) [Compound 161]
> 10 | < 0.1 | Cc1ccc(Oc2ccc(Nc3ncnc4sc5c(c34)C[C@@H](C)N(C(=O)/C=C/CN(C)C)[C@H]5C)cc2C)cn1 (racemic) [Compound 149, (E)-1-(6,8-cis-dimethyl-4-((3-methyl-4-((6-methylpyridin-3-yl)oxy)phenyl)amino)-5,8-dihydropyrido[4′,3′:4,5]thieno[2,3-d]pyrimidin-7(6H)-yl)-4-(dimethylamino)but-2-en-1-one]
